The values below are quoted from earlier work in patent US20110105387A1 (priority 2009, published 2011).

In brackets after ≈: the same amount, converted by molar mass. Where only a bound is given, the exact number is not on record here.

The conditions of data set [1]: literature.
The conditions of data set [2]: literature. This is another data set of the same source.

As to `CO[C@H]1C[C@@H]2CC[C@@H](C)[C@@](O)(O2)C(=O)C(=O)N2CCCC[C@H]2C(=O)O[C@H]([C@H](C)C[C@@H]2CC[C@@H](OC(=O)C(C)(CO)CO)[C@H](OC)C2)CC(=O)[C@H](C)/C=C(\C)[C@@H](O)[C@@H](OC)C(=O)[C@H](C)C[C@H](C)/C=C/C=C/C=C/1C` [CCI-779], the water solubility in data set [1] is approximately 120 µg/mL (≈ 116 µM).

In the case of `CO[C@H]1C[C@@H]2CC[C@@H](C)[C@@](O)(O2)C(=O)C(=O)N2CCCC[C@H]2C(=O)O[C@H]([C@H](C)C[C@@H]2CC[C@@H](O)[C@H](OC)C2)CC(=O)[C@H](C)/C=C(\C)[C@@H](O)[C@@H](OC)C(=O)[C@H](C)C[C@H](C)/C=C/C=C/C=C/1C` [rapamycin], in data set [2] (after oral dosing), the “time to attain peak concentrations” value was not above 2 h. Further, in data set [2] (high-fat meal, slower rate of absorption), the “increase in AUC with a high-fat meal” value is listed as 35%. In addition, the excreted in urine in data set [2] is given as less than 3%.
